Where two headings read alike, the source gives them in different places. Where a SMILES comes first, the peptide text is derived from it. [ ]: non-standard residue; d: D form. The star is where a group is joined. X1 = O=C(COc1c(-c2csc(N3CCOCC3)n2)ccc(F)c1F)NCCCCCCN*; X2 = Fc1ccc(-c2csc(N3CCOCC3)n2)c(OCCOCCOCCN*)c1F; Dip = N[C@H](C(=O)O)C(c1ccccc1)c1ccccc1; Chg = N[C@H](C(=O)O)C1CCCCC1; NMeA = CN[C@@H](C)C(=O)O
Tested on: 22Rv1
Assay: 22Rv1 cell count decrease
Type: cell-based
Conditions: Homo sapiens
Description: The human prostate cancer cell line, 22Rv1 has been reported to express a high level of AR-V7. […] Standard culture media was RPMI-1640 supplemented with 10% fetal bovine serum. The test compound initially was dissolved in DMSO at 50 mM. This stock solution was then diluted as needed for the indicated concentrations. […]

[1] = read-out: 22Rv1 cell count decrease at 10 uM for 48 hours, 22Rv1 cells, 10 uM, read-out: 22Rv1 cell count decrease at 10 uM

Compound	inhibition at 10 µM (22Rv1, read-out: 22Rv1 cell count decrease at 10 uM for 48 hours) [%]	inhibition at 10 µM [1] [%]
CN[C@@H](C)C(=O)N[C@H](C(=O)N1CCC[C@H]1C(=O)N[C@H](C(=O)NCCOCCOCCOc1c(-c2csc(N3CCOCC3)n2)ccc(F)c1F)C(c1ccccc1)c1ccccc1)C1CCCCC1 [Example 24, (S)-1-((S)-2-cyclohexyl-2-((S)-2-(methylamino)propanamido)acetyl)-N-((S)-1-((2-(2-(2-(2,3-difluoro-6-(2-morpholinothiazol-4-yl)phenoxy)ethoxy)ethoxy)ethyl)amino)-1-oxo-3,3-diphenylpropan-2-yl)pyrrolidine-2-carboxamide] (H-[NMeA][Chg]P[Dip]-X2)	> 50	–
CN[C@@H](C)C(=O)N[C@H](C(=O)N1CCC[C@H]1C(=O)N[C@H](C(=O)NCCCCCCNC(=O)COc1c(-c2csc(N3CCOCC3)n2)ccc(F)c1F)C(c1ccccc1)c1ccccc1)C1CCCCC1 [Example 26, (S)-1-((S)-2-cyclohexyl-2-((S)-2-(methylamino)propanamido)acetyl)-N-((S)-1-((6-(2-(2,3-difluoro-6-(2-morpholinothiazol-4-yl)phenoxy)acetamido)hexyl)amino)-1-oxo-3,3-diphenylpropan-2-yl)pyrrolidine-2-carboxamide] (H-[NMeA][Chg]P[Dip]-X1)	–	> 50
O=C1CCC(N2C(=O)c3cccc(NCCCCCCNC(=O)c4cn(-c5csc(N6CCOCC6)n5)cn4)c3C2=O)C(=O)N1 (stereo not drawn) [Example 32, N-(6-((2-(2,6-dioxopiperidin-3-yl)-1,3-dioxoisoindolin-4-yl)amino)hexyl)-1-(2-morpholinothiazol-4-yl)-1H-imidazole-4-carboxamide]	–	0 to 20

— patent US11787778B2, “Bi-functional compounds and methods for targeted ubiquitination of androgen receptor” (MONTELINO THERAPEUTICS, INC., priority 2019, dated 2023)
